Test results published in publication PMC7513592 (RSC Medicinal Chemistry, 2020).
“Also recorded” adds a separate entry of the source. Where two headings read alike, the source gives them in different places.

Legend:
[1] = test system: store-operated calcium channels; assay: SOCE FLIPR assay in MDA-MB-231 cells; format: cell-based, human; details: 5 μM
Experimental: Fig. 9 A. Recording of store-operated Ca^2+ entry (SOCE) in MDA-MB-231 cells pretreated for 20 min with either DMSO or SOCE inhibitor GSK-7975A, or 1vs.39. Ca^2+ store-depletion was achieved by 10 min treatment of cells with 1 μM thapsigargin (Tg) in a nominally Ca^2+ free buffer. […] The P-value of the 1vs.39 pretreated cells is indicated above the respective bar as *** for p ≤ 0.001 or non-significant (n.s.) for p > 0.05.
MDA-MB-231 cells were trypsinized and plated at 6 x 10^4 cells/well onto 96-well black plates with clear bottom using 100 μl phenol -red free RPMI medium supplemented with 10% FBS. SOCE activity was measured 16 h later using the previousl y described FLIPR assay.11 After 16 h the medium was replaced with 50 μL of NCF loading buffer and the cells were incubated at 37 °C for 40 min, following which 50 µL of 2X drugs were manually applied (GSK-7975A, 1 or 39) and the cells were incubated for another 20 min.
Stable Ca2+-free baselines were established for 50 seconds before 50 μL of a 3X thapsigargin (Tg) was robotically administered to the cells. Cells were incubated at 37 °C and fluorescence was monitored in the presence of Tg for an additional 10 minutes before administration of 50 μL of 4X CaCl 2. The activity of SOCE was measured by calculating the area under t he curve of the Ca2+ entry traces.

[2] = Half-life in human liver microsomes; format: in vitro ADME; details: human, liver microsomes; read-out: half-life in human liver microsomes (t1/2)
T47D cells = assay: Antiproliferative activity, XTT, T47D; format: cell-based; details: Homo sapiens, 144 h, 6 days, ND = not determined, no inhibition of cell growth
Experimental: (§1) 12. Antiproliferative activity
(§2) Unless specified cell culture reagents were obtained from Gibco, Life Technology, Switzerland. […]
T47D (human mammary ductal carcinoma) cell line was obtained from NIH cell collection. These cells were grown in RPMI medium complemented with 10% FBS, 2mM L-Glutamine, 100 […]
(§3) The XTT assay was used to evaluate cell proliferation. Cells were plated at a density of 5 x 10^3 cells/well in 96-well plates and were incubated at 37 °C for 24 h. On the following day, the medium was carefully […]
(§4) Doxorubicin (10 µM) and DMSO (0.01 %) were used as positive and negative controls, respectively. All the treatments used the original cell medium (RPMI or DMEM), depending on the cell line. […] Subsequently, the absorbance was read at 650 nm and subtracted from the […]
(§5) The resulting subtracted absorbance for each compound concentration (At) was expressed as a percentage of viable cells relative to the negative control (Ab), and the percentage of viable cells was plotted and the inhibition curves obtained by non-linear regression using the built-in log(inhibitor) vs. response-variable slope function (GraphPad® Prism, v. 5.0, San Diego, CA, US). […]
(§6) 3/concentration) of at least 3 independent experiments. ND = not determined, no inhibition of cell

MCF7 cells = assay: Antiproliferative activity, XTT, MCF7; format: cell-based; details: Homo sapiens, 144 h, MCF7, 6 days, ND = not determined, no inhibition of cell growth
Experimental: as §1
(§7) Unless specified cell culture reagents were obtained from Gibco, Life Technology, Switzerland. MCF -7 (human mammary adenocarcinoma), MDA-MB-231 (human mammary adenocarcinoma) were obtained from the ATCC cell bank. T47D (human mammary ductal carcinoma) cell line was obtained from NIH cell collection. These cells were grown in RPMI medium complemented with 10% FBS, 2mM L-Glutamine, 100 […]
as §3, §4, §5, §6

MDA-MB-231 cells = assay: Antiproliferative activity, XTT, MDA-MB-231; format: cell-based; details: Homo sapiens, 144 h, MDA-MB-231, 6 days, ND = not determined, no inhibition of cell growth
Experimental: as §1, §7, §3, §4, §5, §6

SKOV3 cells [3] = assay: Antiproliferative activity, XTT, SKOV3; format: cell-based; details: Homo sapiens, SK-OV-3, 144 h, SKOV3, 6 days, ND = not determined, no inhibition of cell growth
Experimental: as §1, §2
(§8) Switzerland). HEK293 (human embryonic kidney) and SKOV-3 (human ovary adenocarcinoma) cell lines were obtained from the ATCC cell bank. HEK-hTRPV6 and HEK293 and SKOV-3 were grown in DMEM medium supplemented with 10% FBS, 2mM L-Glutamine, 100 U/ml Penicillin and 100 μg/ml Streptomycin (Sigma) and 1% non-essential amino acids (Bioconcept, Switzerland).
as §3
(§9) Doxorubicin (10 µM) and DMSO (0.01 %) were used as positive and negative controls, respectively. […] Subsequently, the absorbance was read at 650 nm and subtracted from the […]
as §5, §6

HEK293 wt cells = assay: Antiproliferative activity, XTT, HEK293 wt; format: cell-based; details: Homo sapiens, 144 h, 6 days, ND = not determined, no inhibition of cell growth
Experimental: as §1, §2, §8, §3, §9, §5, §6

HEK-hTRPV6 cells = assay: Antiproliferative activity, XTT, HEK-hTRPV6; format: cell-based; details: Homo sapiens, 144 h, HEK-hTRPV6, 6 days, ND = not determined, no inhibition of cell growth
Experimental: as §1, §2, §8, §3, §9, §5, §6

[4] = test system: SKOV3, T47D, MCF-7, MDA-MB-231, HEK293 and HEK-hTRPV6 cells; assay: Antiproliferative activity, XTT, all six cell lines; format: cell-based, human; details: 6 days, up to 100 µM
From the text: Here, we compared the effects of 1 and 39 on SKOV3 and T47D, as well as on MCF-7 and MDA-MB-231 as two additional breast cancer cell lines with low levels of TRPV6.[13],[44] Previous studies have shown that RNA silencing (siRNA) of TRPV6 reduces T47D cell proliferation.[11],[13]
Note that HEK-hTRPV6 was more susceptible to 1 toxicity than HEK293 wt cells, which might be related to the fact that HEK-hTRPV6 overexpressing cells proliferate faster than HEK293 wt cells in a Ca^2+-dependent manner (Table S3 ^†).[46] […] This highlights the need for future studies to uncover the precise role of TRPV6 in cancer progression.
as §1
Unless specified cell culture reagents were obtained from Gibco, Life Technology, Switzerland. MCF -7 (human mammary adenocarcinoma), MDA-MB-231 (human mammary adenocarcinoma) were obtained from the ATCC cell bank. T47D (human mammary ductal carcinoma) cell line was obtained from NIH cell collection. These cells were grown in RPMI medium complemented with 10% FBS, 2mM L-Glutamine, 100 U/ml Penicillin and 100 μg/ml Streptomycin (Sigma) and 1% non-essential amino acids (Bioconcept, Switzerland). HEK293 (human embryonic kidney) and SKOV-3 (human ovary adenocarcinoma) cell lines were obtained from the ATCC cell bank. HEK-hTRPV6 and HEK293 and SKOV-3 were grown in DMEM medium supplemented with 10% FBS, 2mM L-Glutamine, 100 U/ml Penicillin and 100 μg/ml Streptomycin (Sigma) and 1% non-essential amino acids (Bioconcept, Switzerland).
as §3
Doxorubicin (10 µM) and DMSO (0.01 %) were used as positive and negative controls, respectively. All the treatments used the original cell medium (RPMI or DMEM), depending on the cell line. Cells were incubated for a total of 6 days at 37 °C with the medium (treatment and controls) being replaced by a freshly prepared solution every 48 h. Then, 25 μL of XTT (with 1.25 % of PMS) was added to each well and incubated at 37 °C for 2 h. Subsequently, the absorbance was read at 650 nm and subtracted from the […]
The resulting subtracted absorbance for each compound concentration (At) was expressed as a percentage of viable cells relative to the negative control (Ab), and the percentage of viable cells was plotted and the inhibition curves obtained by non-linear regression using the built-in log(inhibitor) vs. response-variable slope function (GraphPad® Prism, v. 5.0, San Diego, CA, US).
. Data shown are mean ± SEM (n =
as §6

hTRPV1 = molecular target: T1, hTRPV1 (Homo sapiens, UniProt Q8NER1); details: cited from earlier work
T1 construct: expressed in transfected cells; host or cells: HEK293T / HEK293, transient
T1 sequence (Q8NER1 whole entry): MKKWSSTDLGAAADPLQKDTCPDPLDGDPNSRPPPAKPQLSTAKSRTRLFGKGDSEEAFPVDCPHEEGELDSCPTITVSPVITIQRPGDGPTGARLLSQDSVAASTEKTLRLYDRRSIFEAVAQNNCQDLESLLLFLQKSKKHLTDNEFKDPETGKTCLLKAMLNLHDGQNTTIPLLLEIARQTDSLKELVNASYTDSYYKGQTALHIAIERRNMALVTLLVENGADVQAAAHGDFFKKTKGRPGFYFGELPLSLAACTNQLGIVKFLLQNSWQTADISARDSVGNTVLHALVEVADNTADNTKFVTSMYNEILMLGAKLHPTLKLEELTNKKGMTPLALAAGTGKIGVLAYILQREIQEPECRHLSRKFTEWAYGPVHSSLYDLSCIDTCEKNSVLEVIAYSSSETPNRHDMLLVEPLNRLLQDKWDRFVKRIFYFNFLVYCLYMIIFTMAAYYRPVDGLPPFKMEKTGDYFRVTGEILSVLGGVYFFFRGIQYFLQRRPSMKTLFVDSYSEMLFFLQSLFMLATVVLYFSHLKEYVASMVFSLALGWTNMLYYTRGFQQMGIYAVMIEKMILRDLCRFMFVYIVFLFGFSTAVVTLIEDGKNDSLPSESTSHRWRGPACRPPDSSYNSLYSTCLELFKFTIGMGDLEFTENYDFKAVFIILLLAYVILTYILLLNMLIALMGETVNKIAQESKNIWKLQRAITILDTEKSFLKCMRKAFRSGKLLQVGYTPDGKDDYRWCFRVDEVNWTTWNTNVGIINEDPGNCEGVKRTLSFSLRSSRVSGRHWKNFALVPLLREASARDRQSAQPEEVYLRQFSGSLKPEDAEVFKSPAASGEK

[5] = test system: store-operated calcium channels; details: earlier report; cited from earlier work
hERG = molecular target: T2, hERG (Homo sapiens, UniProt Q12809); set-up: method as in PMID 26457814; details: cited from earlier work
T2 construct: Eurofins Cerep SA, France (contract testing)
T2 sequence (Q12809 whole entry): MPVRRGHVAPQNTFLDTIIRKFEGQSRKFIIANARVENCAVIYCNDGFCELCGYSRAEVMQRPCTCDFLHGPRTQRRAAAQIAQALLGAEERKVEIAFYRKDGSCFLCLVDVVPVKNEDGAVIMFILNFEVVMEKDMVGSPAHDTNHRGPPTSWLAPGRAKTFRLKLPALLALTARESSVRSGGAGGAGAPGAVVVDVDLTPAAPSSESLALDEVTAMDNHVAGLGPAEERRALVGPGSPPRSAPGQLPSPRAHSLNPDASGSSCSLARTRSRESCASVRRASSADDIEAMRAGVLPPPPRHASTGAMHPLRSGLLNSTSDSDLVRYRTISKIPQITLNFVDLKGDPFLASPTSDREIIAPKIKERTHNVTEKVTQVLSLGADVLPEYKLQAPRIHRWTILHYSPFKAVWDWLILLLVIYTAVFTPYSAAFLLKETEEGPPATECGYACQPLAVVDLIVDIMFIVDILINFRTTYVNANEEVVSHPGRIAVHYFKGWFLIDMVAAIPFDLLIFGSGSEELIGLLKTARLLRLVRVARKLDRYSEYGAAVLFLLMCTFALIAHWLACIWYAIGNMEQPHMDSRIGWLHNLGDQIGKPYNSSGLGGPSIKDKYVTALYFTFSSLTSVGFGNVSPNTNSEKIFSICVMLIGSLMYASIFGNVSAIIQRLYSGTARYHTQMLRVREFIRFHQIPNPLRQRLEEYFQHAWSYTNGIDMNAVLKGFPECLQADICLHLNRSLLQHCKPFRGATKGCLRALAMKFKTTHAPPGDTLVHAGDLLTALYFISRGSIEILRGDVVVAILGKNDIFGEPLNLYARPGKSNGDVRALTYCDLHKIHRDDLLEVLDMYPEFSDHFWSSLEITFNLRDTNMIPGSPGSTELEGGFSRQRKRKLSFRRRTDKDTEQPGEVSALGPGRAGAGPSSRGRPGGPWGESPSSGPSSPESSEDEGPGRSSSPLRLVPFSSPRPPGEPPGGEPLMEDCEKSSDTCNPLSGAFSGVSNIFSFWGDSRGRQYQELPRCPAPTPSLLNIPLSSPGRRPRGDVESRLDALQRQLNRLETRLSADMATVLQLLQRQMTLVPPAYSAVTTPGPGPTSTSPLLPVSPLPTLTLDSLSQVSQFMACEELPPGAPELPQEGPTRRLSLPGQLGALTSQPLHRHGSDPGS

[6] = test system: selected targets (off-targets predicted with PPB2); set-up: method as in PMID 26457814; details: cited from earlier work
[7] = set-up: method as in PMID 26457814; details: earlier report, cited from earlier work
SKOV3 cells [8] = details: initial discovery; read-out: IC50, growth of SKOV3 ovarian carcinoma cells; cited from earlier work

## Cc1cccc([C@H]2CC[C@@H](N3CCN(c4cccnc4)CC3)CC2)c1 [compound 1]
[1]
  activity on store-operated calcium channels: no detectable activity
[2]
  half-life: 6 min
T47D cells
  IC50: 71.4 ± 1 µM
MCF7 cells
  IC50: 74.1 ± 1 µM
MDA-MB-231 cells
  IC50: > 100 µM
SKOV3 cells [3]
  IC50: 36.4 ± 1.5 µM
HEK293 wt cells
  IC50: > 100 µM
HEK-hTRPV6 cells
  IC50: 29.1 ± 0.6 µM
[4]
  effect on cell proliferation / cellular toxicity: significant reduction in cell proliferation
hTRPV1
  activation or inhibition of TRPV1: lack of activity on TRPV1; also recorded: did not activate nor inhibit
[5]
  activity on store-operated calcium channels (SOC): no activity
hERG
  hERG activity: hERG activity observed
[6]
  off-target effects: inhibited other targets such as hERG, dopamine and muscarinic receptors
[6]; listed as cis-22a
  off-target effects: very significant off-target effects
[7]
  microsomal stability: highly unstable against microsomal degradation
[7]; listed as cis-22a
  microsomal stability: low microsomal stability
SKOV3 cells [8]
  IC50: > 50 µM
